In assay [1] the test system is MCF7 (breast adenocarcinoma). Description: In vitro growth inhibition screen (sulphorhodamine B), MCF7. The assay is classed as cell-based, human. As to conditions: MCF7 cells, incubated for 48 hours, sulphorhodamine B dye; read-out: GI50 (concentration which inhibits the cell growth by 50%), MCF7 Breast adenocarcinoma. On the procedure: (§1) Each agent was tested over a broad concentration range (ten-fold dilutions starting from ≧100 μM to 10 nM) against 6 human cancer cell lines which was comprised of different tumor types. These are DU145 (prostate carcinoma), HT29 (colorectal adenocarcinoma), LOX (melanoma), MCF7 (breast adenocarcinoma), MCF7ADR (adriamycin resistant breast adenocarcinoma), and U251 (human glioblastoma). A standard compound doxorubicin was tested in each assay as a positive control. The cells were maintained in growing condition in RPMI 1640 medium containing 10% fetal calf serum and incubated at 37° C. under 5% CO2 atmosphere. All cell lines were inoculated onto a series of standard 96-well microtitre plate on day zero, followed by twenty four-hour incubation in the absence of test compound. The inoculation densities in the screen were as per Monk et al., (1991) J. Natl. Cancer Inst., 83, 757-766. All NCEs were dissolved in DMSO and diluted further in culture medium. An aliquot of each dilution was added to the growing cells in 96 well plates and incubated for 48 hours. After incubation, the assay was terminated by adding 50 μL of trichloroacetic acid (TCA) and incubating at 4° C. for 30 min. The precipitated cells were washed and stained with sulphorhodamine B dye for 30 min and the excess dye was washed off with acetic acid. Adsorbed dye was solubilised in Tris base (alkaline pH) and quantitated by measuring the OD at […] in ELISA READER. GI50 (concentration which inhibits the cell growth by 50%) was calculated according to Boyd and Paull, (1995) Drug Dev. Res., 34, 91-109.

The test system of assay [2] is DU145 (prostate carcinoma). As to the kind of experiment: In vitro growth inhibition screen (sulphorhodamine B), DU145. The assay is classed as cell-based, human. As to conditions: DU145 cells, incubated for 48 hours, sulphorhodamine B dye; read-out: GI50 (concentration which inhibits the cell growth by 50%), DU145 Prostate carcinoma. The protocol:
as §1
(In general: Sulforhodamine B stains cellular protein and so reports cell mass.)

Assay [3] has as its system HT29 (colorectal adenocarcinoma). As to the kind of experiment: In vitro growth inhibition screen (sulphorhodamine B), HT29. The class given is cell-based, human. As to conditions: HT29 cells, incubated for 48 hours, sulphorhodamine B dye; read-out: GI50 (concentration which inhibits the cell growth by 50%), HT29 Colorectal adenocarcinoma. On the procedure:
as §1

Assay [4] has as its system U251 (human glioblastoma). As to the kind of experiment: In vitro growth inhibition screen (sulphorhodamine B), U251. The class given is cell-based. As to conditions: U251 cells, incubated for 48 hours, sulphorhodamine B dye; read-out: GI50 (concentration which inhibits the cell growth by 50%), U251 Human glioblastoma astrocytoma. The protocol:
as §1

The subject of a further assay is LOX (melanoma). As to the kind of experiment: In vitro growth inhibition screen (sulphorhodamine B), LOX. The class given is cell-based, human. As to conditions: LOX cells, incubated for 48 hours, sulphorhodamine B dye; read-out: GI50 (concentration which inhibits the cell growth by 50%), LOX Melanoma. The protocol: as §1
The subject of assay [5] is MCF7ADR (adriamycin resistant breast adenocarcinoma). Description: In vitro growth inhibition screen (sulphorhodamine B), MCF7ADR. As to conditions: MCF7ADR cells, incubated for 48 hours, sulphorhodamine B dye; read-out: GI50 (concentration which inhibits the cell growth by 50%), MCF7ADR Adriamycin Resistant Breast adenocarcinoma. The class given is cell-based, human. The protocol: as §1

With `CCCN1C(=O)[C@H](OCc2ccccc2)[C@@H](OCc2ccccc2)[C@H](OCc2ccccc2)[C@H]1CNC(=O)Nc1ccc(C(F)(F)F)cc1` [Compound No. 22, 2,3,4-Tri-O-benzyl-6-N-{[4-trifluoromethylphenyl]aminocarbonylamino}-N-propyl-D-gluco-δ-lactam], the GI50 in assay [1] is 39.8 µM; in assay [2] it was 5.1 µM; in assay [3], 11.9 µM; in assay [4] it was 5.1 µM; in the assay with LOX (melanoma), 4.3 µM; in assay [5] it was 8.2 µM.
For the compound `CCCN1C(=O)[C@H](OCc2ccccc2)[C@@H](OCc2ccccc2)[C@H](OCc2ccccc2)[C@H]1CNC(=O)NC12CC3CC(CC(C3)C1)C2` [Compound No. 23, 2,3,4-Tri-O-benzyl-6-N-{[1-adamantyl]aminocarbonylamino}-N-propyl-D-gluco-δ-lactam], the GI50 in assay [1] amounted to 5.6 µM; in assay [2], 50 µM; in assay [3], 28.7 µM; in assay [4] it was 4.2 µM; in the assay with LOX (melanoma), 35.7 µM; in assay [5] it was 26 µM.
Turning to `CCCN1C(=O)[C@H](O)[C@@H](O)[C@H](O)[C@H]1CNC(=O)Nc1ccccc1` [Compound No. 24, N-Propyl-6-N-{[phenyl]aminocarbonylamino}-D-gluco-δ-lactam], the GI50 in assay [1] is 157 µM; in assay [2], 296 µM; in assay [3] it was 213 µM; in assay [4] it was 231 µM; with LOX (melanoma), 169 µM; in assay [5], 262 µM.
`CCCN1C(=O)[C@H](O)[C@@H](O)[C@H](O)[C@H]1CNC(=O)Nc1ccccc1C(F)(F)F` [Compound No. 25, 6-N-{[2-Trifluoromethylphenyl]aminocarbonylamino}-N-propyl-D-gluco-δ-lactam]: the GI50 in assay [1] is 190 µM; in assay [2] it was 386 µM; in assay [3], 311 µM; in assay [4], 278 µM; with LOX (melanoma), 94.6 µM; in assay [5], 228 µM.
With `CCCN1C(=O)[C@H](O)[C@@H](O)[C@H](O)[C@H]1CNC(=O)Nc1ccc(C)cc1` [Compound No. 26, 6-N-{[p-Tolyl]aminocarbonylamino}-N-propyl-D-gluco-δ-lactam], the GI50 in assay [1] came to 136 µM; in assay [2] it was 278 µM; in assay [3], 209 µM; in assay [4], 520 µM; with LOX (melanoma), 116 µM; in assay [5] it was 235 µM.
As to `CCCN1C(=O)[C@H](O)[C@@H](O)[C@H](O)[C@H]1CNC(=O)Nc1ccc(OC)cc1` [Compound No. 27, 6-N-{[p-Methoxyphenyl]aminocarbonylamino}-N-propyl-D-gluco-δ-lactam], the GI50 in assay [1] was 214 µM; in assay [2] it was 413 µM; in assay [3] it was 232 µM; in assay [4], 323 µM; in the assay on LOX (melanoma), 193 µM; in assay [5] it was 481 µM.
Take `CCCN1C(=O)[C@H](O)[C@@H](O)[C@H](O)[C@H]1CNC(=O)Nc1ccc(N)cc1` [Compound No. 28, 6-N-{[p-Aminophenyl]aminocarbonylamino}-N-propyl-D-gluco-δ-lactam]: the GI50 in assay [1] stood at 106 µM; in assay [2], 288 µM; in assay [3], 242 µM; in assay [4], 557 µM; in the assay with LOX (melanoma) it was 136 µM; in assay [5] it was 194 µM.
As to `CCCN1C(=O)[C@H](O)[C@@H](O)[C@H](O)[C@H]1CNC(=O)Nc1ccc(F)cc1` [Compound No. 29, 6-N-{[4-Fluorophenyl]aminocarbonylamino}-N-propyl-D-gluco-δ-lactam], the GI50 in assay [1] amounted to 85.8 µM; in assay [2] it was 280 µM; in assay [3] it was 58.6 µM; in assay [4] it was 87 µM; in the assay on LOX (melanoma) it was 290 µM; in assay [5], 165 µM.
Regarding `CCCN1C(=O)C(O)C(O)C(O)C1CNC(=O)NC(C)C` [Compound No. 30, 6-N-{[Isopropyl]aminocarbonylamino}-N-propyl-D-gluco-δ-lactam], the GI50 in assay [1] is 180 µM; in assay [2] it was 119 µM; in assay [3] it was 42.6 µM; in assay [4], 100 µM; in the assay on LOX (melanoma), 226 µM; in assay [5] it was 209 µM.
On to `CCCN1C(=O)[C@H](O)[C@@H](O)[C@H](O)[C@H]1CNC(=O)Nc1ccc(C(F)(F)F)cc1` [Compound No. 31, 6-N-{[4-Trifluoromethylphenyl]aminocarbonylamino}-N-propyl-D-gluco-δ-lactam], for which the GI50 in assay [1] is 139 µM; in assay [2] it was 113 µM; in assay [3] it was 79.5 µM; in assay [4] it was 82.2 µM; with LOX (melanoma) it was 132 µM; in assay [5], 131 µM.
On to `CCCN1C(=O)[C@H](OC(C)=O)[C@@H](OC(C)=O)[C@H](OC(C)=O)[C@H]1CNC(=O)Nc1ccc(OC)cc1` [Compound No. 32, 2,3,4-Tri-O-acetyl-6-N-{[4-methoxyphenyl]aminocarbonylamino}-N-propyl-D-gluco-δ-lactam], for which the GI50 worked out at 74.8 µM in assay [1]; 55.3 µM in assay [2]; 37.7 µM in assay [3]; 62 µM in assay [4]; 87.4 µM with LOX (melanoma); 94.4 µM in assay [5].
For `CCCN1C(=O)[C@H](OC(C)=O)[C@@H](OC(C)=O)[C@H](OC(C)=O)[C@H]1CNC(=O)Nc1ccccc1` [Compound No. 33, 2,3,4-Tri-O-acetyl-6-N-{[phenyl]aminocarbonylamino}-N-propyl-D-gluco-δ-lactam], the GI50 was determined as 34.1 µM in assay [1]; 52.7 µM in assay [2]; 24.1 µM in assay [3]; 47.1 µM in assay [4]; 25.1 µM in the assay on LOX (melanoma); 56.8 µM in assay [5].
Regarding `CCCN1C(=O)C(OC(C)=O)C(OC(C)=O)C(OC(C)=O)C1CNC(=O)Nc1ccc(F)cc1` [Compound No. 34, 2,3,4-Tri-O-acetyl-6-N-{[4-fluorophenyl]aminocarbonylamino}-N-propyl-D-gluco-δ-lactam], the GI50 amounted to 26.1 µM in assay [1]; 78.2 µM in assay [2]; 38.4 µM in assay [3]; 28.3 µM in assay [4]; 130 µM in the assay on LOX (melanoma); 63.4 µM in assay [5].
Regarding `CCCN1C(=O)[C@H](O[Si](C)(C)C)[C@@H](O[Si](C)(C)C)[C@H](O[Si](C)(C)C)[C@H]1CNC(=O)Nc1ccccc1` [Compound No. 35, 2,3,4-Tri-O-trimethylsilyl-6-N-{[phenyl]aminocarbonylamino}-N-propyl-D-gluco-δ-lactam], the GI50 was 7.6 µM in assay [1]; 14 µM in assay [2]; 19.4 µM in assay [3]; 5.8 µM in assay [4]; 8 µM in the assay on LOX (melanoma); 9.3 µM in assay [5].
`CCCN1C[C@H](OCc2ccccc2)[C@@H](OCc2ccccc2)[C@H](OCc2ccccc2)[C@H]1CNC(=O)Nc1ccc(Cl)cc1` [Compound No. 36]: the GI50 came to 0.3 µM in assay [1]; 16.7 µM in assay [2]; 0.8 µM in assay [3]; 11.7 µM in assay [4]; 0.9 µM in the assay with LOX (melanoma); 19.1 µM in assay [5].
Consider `CCCN1C[C@H](OCc2ccccc2)[C@@H](OCc2ccccc2)[C@H](OCc2ccccc2)[C@H]1CNC(=O)Nc1ccc(F)cc1F` [Compound No. 37], for which the GI50 in assay [1] worked out at 10.3 µM; in assay [2] it was 11.1 µM; in assay [3], 2.8 µM; in assay [4] it was 15.4 µM; with LOX (melanoma), 5.1 µM; in assay [5] it was 17.3 µM.
